Where only a bound is given, the exact number is not on record here.

In series [1] the test system is C57BL6J mice. Put plainly: Diet-induced obesity mouse model. The class given is in vivo. On the procedure:
The goal of the study was to assess the therapeutic potency of compound 3A in a mouse model of diet-induced obesity. Compound 3A was administered via food administration for 16 weeks to male C57BL6J mice that were previously subjected for 10 weeks to a high fat diet.
For this study, male C57BL6J mice (5 weeks of age) were divided in 2 groups: one group of animals received chow diet to control the onset of obesity, one group of animals received a high fat diet. Compound 3A was tested on the animals that received the high fat diet (HFD). The animals are then analyzed during a period of 13 weeks. The groups were as follows: • 1: chow diet • 2: high fat diet • 3: high fat diet+3A • During the entire study, body weight and food intake were monitored twice weekly. • The period for the onset of obesity was 10 weeks. At the end of the 10 weeks, body composition was analyzed by dual energy X-ray absorptiometry (dexascan) and serum levels of transaminases, glucose, triglycerides, cholesterol, HDL-C, LDL-C and insulin were measured. […]
The Dexa analyses were performed by the ultra high resolution PIXIMUS Series Densitometer (0.18×0.18 mm pixels, GE Medical Systems, Madison, Wis., USA). Bone mineral density (BMD in g/cm^2) and body composition were determined by using the PIXIMUS software (version 1.4×, GE Medical Systems). […]

Series [2] in a line: Critical micellar concentration by surface tension (maximum bubble-pressure method). The format is physicochemical. On the procedure:
The critical micellar concentration (CMC) was determined by surface tension (ST) measurements using a maximum bubble-pressure method which give surface tension values slightly affected by potential impurities like static methods are. The tensiometer was a […] Research Corp., Milwaukee, Wis.) equipped with two glass probes of 0.5 and 4.0 mm diameters connected to a source of nitrogen. The bubble frequency was 1 bubble/second in distilled water at 26° C. (P=2.7 atm) and the calibration was made with double-distilled water and methanol. The surface tension of BA sodium salts solutions in NaCl 0.15 M was measured at various concentrations inside the 0.13-50 mM range. The surface tension values were plotted against the logarithm of the bile salt concentration; the regression lines corresponding to the two parts of the curve (monomeric and micellar phases) were calculated using the method of least squares, and the intersection of the lines was taken as the CMC value. From the ST vs concentration curves the value of the surface tension at the CMC (equilibrium between monomers and multimers species) was also calculated giving information about the detergency power which is related to the size of the micelles with associate surface tension lowering capacity. The CMC was evaluated by surface tension measurements in non equilibrium conditions i.e. in conditions that impurities slightly affect the surface tension results (FIG. 1).

For `CC[C@H]1[C@@H](O)[C@@H]2[C@H](C[C@H](O)[C@]3(C)[C@@H]([C@H](C)CCCS(=O)(=O)[O-])CC[C@@H]23)[C@@]2(C)CC[C@@H](O)C[C@@H]12.[Na+]` [Compound 3A, 3α,7α,12α-trihydroxy-6α-ethyl-5β-cholan-24-sulfonate Sodium Salt], the melting point was greater than 280 °C. Further, in series [1] (HF-fed mice, compound in food, 0-9 weeks (FIG. 8)), the body weight gain entry is reported as “blunted”. For the same compound, the “fat gain (body composition)” value in series [1] (HFD mice, 5 weeks after treatment (FIG. 9)) was “reduces fat gain”. For the same compound, the “surface tension lowering capacity” value in series [2] (NaCl […]) was “high surface tension lowering capacity”. In addition, in series [2] ([…] NaCl water solution), the “CMC […] Na+” value turned out to be 2.8 mM and the “STCMC (surface tension at CMC)” value was 43.4 Dyne/cm.

(Values after US8796249B2, “TGR5 modulators and methods of use thereof” (Intercept Pharmaceuticals, Inc., priority 2008, dated 2014).)
